Tests used:
[1] = tested on: RXF 393; assay: Growth inhibition of human RXF393 cells assessed as cell growth at 0.01 uM incubated for 48 hrs by sulforhodamine B assay relative to control; format: functional; conditions: RXF 393, 48 h, read-out: Activity
[2] = tested on: UO-31; assay: Growth inhibition of human UO31 cells assessed as cell growth at 1 uM incubated for 48 hrs by sulforhodamine B assay relative to control; format: functional; conditions: UO-31, 48 h, read-out: Activity
[3] = tested on: UO-31; assay: Growth inhibition of human UO31 cells incubated for 48 hrs by sulforhodamine B assay; format: functional, cell-based; conditions: UO-31, 48 h
[4] = tested on: SN12C; assay: Growth inhibition of human SN12C cells assessed as cell growth at 1 uM incubated for 48 hrs by sulforhodamine B assay relative to control; format: functional; conditions: read-out: Activity
[5] = tested on: Malme-3M; assay: Growth inhibition of human MALME-3M cells incubated for 48 hrs by sulforhodamine B assay; format: functional, cell-based
[6] = tested on: MOLT-4; assay: Growth inhibition of human MOLT4 cells assessed as cell growth at 0.01 uM incubated for 48 hrs by sulforhodamine B assay relative to control; format: functional; conditions: MOLT-4, 48 h, read-out: Activity
[7] = tested on: Hs-578T; assay: Growth inhibition of human Hs578T cells assessed as cell growth at 0.01 uM incubated for 48 hrs by sulforhodamine B assay relative to control; format: functional; conditions: read-out: Activity
[8] = tested on: NCI-H322M; assay: Growth inhibition of human NCI-H322M cells incubated for 48 hrs by sulforhodamine B assay; format: functional, cell-based
[9] = tested on: HOP-62; assay: Growth inhibition of human HOP62 cells assessed as cell growth at 100 uM incubated for 48 hrs by sulforhodamine B assay relative to control; format: functional; conditions: HOP-62, 48 h, read-out: Activity
[10] = tested on: BT-549; assay: Growth inhibition of human BT549 cells assessed as cell growth at 0.1 uM incubated for 48 hrs by sulforhodamine B assay relative to control; format: functional; conditions: BT-549, 48 h, read-out: Activity
[11] = tested on: MDA-MB-231; assay: Growth inhibition of human MDA-MB-231 cells assessed as cell growth at 1 uM incubated for 48 hrs by sulforhodamine B assay relative to control; format: functional; conditions: MDA-MB-231, 48 h, read-out: Activity
[12] = tested on: SK-OV-3; assay: Growth inhibition of human SKOV3 cells assessed as cell growth at 100 uM incubated for 48 hrs by sulforhodamine B assay relative to control; format: functional; conditions: SK-OV-3, 48 h, read-out: Activity
[13] = tested on: RXF 393; assay: Growth inhibition of human RXF393 cells assessed as cell growth at 100 uM incubated for 48 hrs by sulforhodamine B assay relative to control; format: functional; conditions: RXF 393, 48 h, read-out: Activity
[14] = tested on: HCT-15; assay: Growth inhibition of human HCT15 cells assessed as cell growth at 0.1 uM incubated for 48 hrs by sulforhodamine B assay relative to control; format: functional; conditions: HCT-15, 48 h, read-out: Activity
[15] = tested on: HT-29; assay: Growth inhibition of human HT-29 cells assessed as cell growth at 10 uM incubated for 48 hrs by sulforhodamine B assay relative to control; format: functional; conditions: HT-29, 48 h, read-out: Activity
[16] = tested on: HL-60(TB); assay: Growth inhibition of human HL-60(TB) cells assessed as cell growth at 0.1 uM incubated for 48 hrs by sulforhodamine B assay relative to control; format: functional; conditions: HL-60, 48 h, read-out: Activity
[17] = tested on: ACHN; assay: Growth inhibition of human ACHN cells incubated for 48 hrs by sulforhodamine B assay; format: functional, cell-based
[18] = tested on: UACC-257; assay: Growth inhibition of human UACC257 cells assessed as cell growth at 100 uM incubated for 48 hrs by sulforhodamine B assay relative to control; format: functional; conditions: UACC-257, 48 h, read-out: Activity
[19] = tested on: SW-620; assay: Growth inhibition of human SW620 cells assessed as cell growth at 100 uM incubated for 48 hrs by sulforhodamine B assay relative to control; format: functional; conditions: SW-620, 48 h, read-out: Activity
[20] = tested on: NCI/ADR-RES; assay: Growth inhibition of human NCI/ADR-RES cells incubated for 48 hrs by sulforhodamine B assay; format: functional, cell-based
[21] = tested on: K562; assay: Growth inhibition of human K562 cells assessed as cell growth at 100 uM incubated for 48 hrs by sulforhodamine B assay relative to control; format: functional; conditions: K562, 48 h, read-out: Activity
[22] = tested on: SK-MEL-28; assay: Growth inhibition of human SK-MEL-28 cells assessed as cell growth at 0.01 uM incubated for 48 hrs by sulforhodamine B assay relative to control; format: functional; conditions: SK-MEL-28, 48 h, read-out: Activity
[23] = tested on: K562; assay: Growth inhibition of human K562 cells assessed as cell growth at 0.1 uM incubated for 48 hrs by sulforhodamine B assay relative to control; format: functional; conditions: K562, 48 h, read-out: Activity
[24] = tested on: OVCAR-8; assay: Growth inhibition of human OVCAR8 cells assessed as cell growth at 0.01 uM incubated for 48 hrs by sulforhodamine B assay relative to control; format: functional; conditions: OVCAR-8, 48 h, read-out: Activity
[25] = tested on: RXF 393; assay: Growth inhibition of human RXF393 cells incubated for 48 hrs by sulforhodamine B assay; format: functional, cell-based; conditions: RXF 393, 48 h
[26] = tested on: UACC-62; assay: Growth inhibition of human UACC62 cells assessed as cell growth at 0.01 uM incubated for 48 hrs by sulforhodamine B assay relative to control; format: functional; conditions: UACC-62, 48 h, read-out: Activity
[27] = tested on: UACC-62; assay: Growth inhibition of human UACC62 cells assessed as cell growth at 0.1 uM incubated for 48 hrs by sulforhodamine B assay relative to control; format: functional; conditions: UACC-62, 48 h, read-out: Activity
[28] = tested on: NCI-H522; assay: Growth inhibition of human NCI-H522 cells incubated for 48 hrs by sulforhodamine B assay; format: functional, cell-based; conditions: NCI-H522, 48 h
[29] = tested on: 786-0; assay: Growth inhibition of human 786-0 cells assessed as cell growth at 0.1 uM incubated for 48 hrs by sulforhodamine B assay relative to control; format: functional; conditions: 786-0, 48 h, read-out: Activity
[30] = read-out: LC50 (the source's name)
[31] = read-out: pLC50 (the source's name) (converted)

Work on `COc1cc(Cl)cc(-c2nn(-c3cccc(NC(=O)Nc4cc(C(F)(F)F)cc(C(F)(F)F)c4)c3)cc2-c2ccncc2)c1` yielded a growth at 0.01 µM [1] of 96%, a growth at 1 µM [2] of 15% and an IC50 [3] of 260 nM. For the same molecule, the GI50 ([3]; read-out: GI50) was 254 nM, the CC50 [3, 30] was 59.7 nM and the TGI ([3]; read-out: TGI) was 1580 nM. The GI50 ([3]; read-out: pGI50 (converted)) was 263 nM, the CC50 [3, 31] was 6920 nM and the TGI ([3]; read-out: pTGI (converted)) was 1580 nM. For the same molecule, the growth at 1 µM [4] was 17%, the IC50 [5] was 530 nM and the GI50 ([5]; read-out: GI50) was 530 nM. For the same molecule, the CC50 [5, 30] was over 100000 nM, the TGI ([5]; read-out: TGI) was 3570 nM and the GI50 ([5]; read-out: pGI50 (converted)) was 537 nM. The CC50 [5, 31] was over 100000 nM, the TGI ([5]; read-out: pTGI (converted)) was 3550 nM and the growth at 0.01 µM [6] was 94%. It also gave a growth at 0.01 µM [7] of 97%, an IC50 [8] of 930 nM and a GI50 ([8]; read-out: GI50) of 933 nM. For the same molecule, the TGI ([8]; read-out: TGI) was 10900 nM, the GI50 ([8]; read-out: pGI50 (converted)) was 933 nM and the CC50 [8, 31] was 46800 nM. The TGI ([8]; read-out: pTGI (converted)) was 11000 nM, the growth at 100 µM [9] was -60% and the growth at 0.1 µM [10] was 89%. It also gave a growth at 1 µM [11] of 29%, a growth at 100 µM [12] of -73% and a growth at 100 µM [13] of -92%. For the same molecule, the growth at 0.1 µM [14] was 90%, the growth at 10 µM [15] was 3.93% and the growth at 0.1 µM [16] was 88%. The IC50 [17] was 400 nM, the GI50 ([17]; read-out: GI50) was 397 nM and the CC50 [17, 30] was over 100000 nM. It also gave a TGI ([17]; read-out: TGI) of 12500 nM, a GI50 ([17]; read-out: pGI50 (converted)) of 398 nM and a CC50 [17, 31] of over 100000 nM. It also gave a TGI ([17]; read-out: pTGI (converted)) of 12600 nM, a growth at 100 µM [18] of -88% and a growth at 100 µM [19] of -72%. It also gave an IC50 [20] of 820 nM, a GI50 ([20]; read-out: GI50) of 815 nM and a CC50 [20, 30] of over 100000 nM. For the same molecule, the TGI ([20]; read-out: TGI) was 9980 nM, the GI50 ([20]; read-out: pGI50 (converted)) was 813 nM and the CC50 [20, 31] was over 100000 nM. The TGI ([20]; read-out: pTGI (converted)) was 10000 nM, the growth at 100 µM [21] was -42% and the growth at 0.01 µM [22] was 103%. For the same molecule, the growth at 0.1 µM [23] was 91%, the growth at 0.01 µM [24] was 99% and the IC50 [25] was 1260 nM. For the same molecule, the LC50 [25] was 14800 nM, the TGI ([25]; read-out: TGI) was 3920 nM and the GI50 ([25]; read-out: pGI50 (converted)) was 1260 nM. The TGI ([25]; read-out: pTGI (converted)) was 3890 nM, the growth at 0.01 µM [26] was 96% and the growth at 0.1 µM [27] was 92%. For the same molecule, the IC50 [28] was 350 nM, the GI50 ([28]; read-out: GI50) was 353 nM and the TGI ([28]; read-out: TGI) was 1760 nM. For the same molecule, the GI50 ([28]; read-out: pGI50 (converted)) was 355 nM, the CC50 [28, 31] was 8910 nM and the TGI ([28]; read-out: pTGI (converted)) was 1780 nM. For the same molecule, the growth at 0.1 µM [29] was 92%.

Source: ChEMBL document CHEMBL4308841, “Synthesis, in vitro antiproliferative activity, and kinase inhibitory effects of pyrazole-containing diarylureas and diarylamides” (Eur J Med Chem, 2018)
